According to patent US6451735B1, “Glyphosate formulation” (priority 1998, dated 2002):
Counter-ions that a name gives are not always drawn.

Assay: solubility in water and solution density of glyphosate salt
Format: physicochemical

O=C(O)CNCP(=O)(O)O [potassium salt of glyphosate, N-phosphonomethylglycine]
density of solutions (aqueous solution): about 1.45 g/cc
solubility in water (water): readily soluble
